Experimental data taken from patent US12134611B2, “Compounds and compositions for treating conditions associated with NLRP activity” (Novartis AG, priority 2018, dated 2024).

The compounds below were run against T1, hNLRP3 (Homo sapiens, UniProt Q96P20) (assay: IL-1β production in PMA-differentiated THP-1 cells stimulated with gramicidin (hTHP-1 assay)). Settings: read-out: NLRP3 Antagonist, hNLRP3 (THP-1, IL-1b) Normalized: GeoMean IC50.
T1 construct: THP-1 cells were purchased from the American Type Culture Collection; host or cells: THP-1 cells, PMA-differentiated, stimulated with gramicidin
T1 sequence (Q96P20 whole entry): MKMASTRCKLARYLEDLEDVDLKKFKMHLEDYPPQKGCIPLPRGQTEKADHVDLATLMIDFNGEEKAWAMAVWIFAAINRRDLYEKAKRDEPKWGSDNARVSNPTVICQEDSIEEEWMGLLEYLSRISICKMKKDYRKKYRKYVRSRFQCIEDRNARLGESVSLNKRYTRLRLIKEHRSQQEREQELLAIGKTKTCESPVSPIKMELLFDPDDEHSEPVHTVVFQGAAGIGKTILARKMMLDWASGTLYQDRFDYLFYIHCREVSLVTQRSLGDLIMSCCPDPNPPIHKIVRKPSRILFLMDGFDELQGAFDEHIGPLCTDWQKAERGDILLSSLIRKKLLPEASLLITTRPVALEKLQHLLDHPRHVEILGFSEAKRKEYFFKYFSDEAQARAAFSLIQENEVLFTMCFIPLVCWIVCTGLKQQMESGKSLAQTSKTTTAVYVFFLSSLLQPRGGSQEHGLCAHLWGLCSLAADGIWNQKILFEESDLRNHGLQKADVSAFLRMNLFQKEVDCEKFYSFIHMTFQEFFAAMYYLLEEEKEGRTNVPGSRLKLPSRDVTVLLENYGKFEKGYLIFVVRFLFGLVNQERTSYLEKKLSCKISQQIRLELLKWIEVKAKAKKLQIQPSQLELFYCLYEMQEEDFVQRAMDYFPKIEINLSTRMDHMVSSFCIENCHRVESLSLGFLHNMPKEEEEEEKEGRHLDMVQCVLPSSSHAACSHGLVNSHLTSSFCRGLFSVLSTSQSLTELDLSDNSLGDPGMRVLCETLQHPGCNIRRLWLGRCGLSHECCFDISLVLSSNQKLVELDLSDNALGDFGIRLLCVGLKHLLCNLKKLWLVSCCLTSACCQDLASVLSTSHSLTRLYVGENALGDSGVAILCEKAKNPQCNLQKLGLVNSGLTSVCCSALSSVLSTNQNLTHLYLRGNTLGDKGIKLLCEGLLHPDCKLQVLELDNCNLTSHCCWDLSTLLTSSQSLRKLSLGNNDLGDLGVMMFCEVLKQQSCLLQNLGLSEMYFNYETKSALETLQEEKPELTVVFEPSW
Assay type: cell-based
Procedure: Procedure 1: IL-1β Production in PMA-Differentiated THP-1 Cells Stimulated with Gramicidin.
THP-1 cells were purchased from the American Type Culture Collection and sub-cultured according to instructions from the supplier. […] Prior to the experiment, compounds were dissolved in dimethyl sulfoxide (DMSO) to generate a 30 mM stock. […] DMSO was backfilled in the plate to achieve a final DMSO assay concentration of 0.37%. The plate was then sealed and stored at room temperature until required.
THP-1 cells were treated with PMA (Phorbol 12-myristate 13-acetate) (20 ng/ml) for 16-18 hours. On the day of the experiment the media was removed and adherent cells were detached with trypsin for 5 minutes.
Procedure 2: IL-1β Production in PMA-Differentiated THP-1 Cells Stimulated with Gramicidin.
THP-1 cells were purchased from the American Type Culture Collection and sub-cultured according to instructions from the supplier. […] Prior to the experiment THP-1 were treated with PMA (Phorbol 12-myristate 13-acetate) (20 ng/ml) for 16-18 hours. Compounds were dissolved in dimethyl sulfoxide (DMSO) to generate a 30 mM stock. On the day of the experiment the media was removed and adherent cells were detached with trypsin for 5 minutes. […] Final DMSO concentration was at 0.37%. Cells were incubated with compounds for 1 hour and then stimulated with gramicidin (5 μM) (Enzo) for 2 hours. Plates were then centrifuged at 340 g for 5 min. Cell free supernatant (40 μL) was collected using a 96-channel PlateMaster (Gilson) and the production of IL-1β was evaluated by HTRF (cisbio).
1. Experimental procedure
1.2 Compound Preparation • Prepare the 3-fold serial dilution of the compounds with DMSO in a 384-well LDV Microplate using TECAN EVO system to generate the compound source plate with 10 concentrations. Top concentration is 30 mM. FIG. 5 depicts the layout of the microplate.
FIG. 5 depicts the layout of the plates: HC: 100 μM CRID3 (MCC950)+5 μM gramicidin LC: 5 μM Gramicidin.
1.5 IL-1β Detection • 1) Homogenize the 5× diluent #5 with a vortex and add 1 volume of stock solution in 4 volumes of distilled water. • 2) Thaw 20× stock solution of anti-IL1β-Cryptate-antibody and anti-IL1β XL-antibody. […] 2. Data Analysis: • 1.

| Structure (SMILES) | IC50 [µM] |
| --- | --- |
| O=C1CC(Cc2ccccc2)S(=O)(=NC(=O)Nc2c3c(cc4c2CCC4)CCC3)N1 (stereo not drawn) [Compound 101, 1-(5-benzyl-1-oxido-3-oxo-1l6-isothiazolidin-1-ylidene)-3-(1,2,3,5,6,7-hexahydro-s-indacen-4-yl)urea] | 1 to 5 |
| CC1(C)CS(=O)(=NC(=O)Nc2c3c(cc4c2CCC4)CCC3)NC1=O (stereo not drawn) [Compound 102, 1-(4,4-dimethyl-1-oxido-3-oxo-1l6-isothiazolidin-1-ylidene)-3-(1,2,3,5,6,7-hexahydro-s-indacen-4-yl)urea] | 0.2 to 1 |
| O=C(N=S1(=O)NC(=O)c2ccc(Br)cc21)Nc1c2c(cc3c1CCC3)CCC2 (stereo not drawn) [Compound 103, 1-(6-bromo-1-oxido-3-oxo-2,3-dihydro-1l4-benzo[d]isothiazol-1-ylidene)-3-(1,2,3,5,6,7-hexahydro-s-indacen-4-yl)urea] | 1 to 5 |
| CC(C)c1cc2c(c(C(C)C)c1CC(=O)N=S1(=O)NC(=O)c3ccc(C(C)(C)O)cc31)COC2 (stereo not drawn) [Compound 104, 2-(4,6-diisopropyl-1,3-dihydroisobenzofuran-5-yl)-N-(6-(2-hydroxypropan-2-yl)-1-oxido-3-oxo-2,3-dihydro-1l4-benzo[d]isothiazol-1-ylidene)acetamide] | > 30 |
| Cc1c(C2CC2)nc2c(c1NC(=O)N=S1(=O)NC(=O)c3ccc(C(C)(C)O)cc31)CCC2 (stereo not drawn) [Compound 105, 1-(2-cyclopropyl-3-methyl-6,7-dihydro-5H-cyclopenta[b]pyridin-4-yl)-3-(6-(2-hydroxypropan-2-yl)-1-oxido-3-oxo-2,3-dihydro-1l4-benzo[d]isothiazol-1-ylidene)urea] | 0.2 to 1 |
| CC(C)(O)c1ccc2c(c1)S(=O)(=NC(=O)Nc1c3c(nc(C4CC4)c1C1CC1)CCC3)NC2=O (stereo not drawn) [Compound 106, 1-(2,3-dicyclopropyl-6,7-dihydro-5H-cyclopenta[b]pyridin-4-yl)-3-(6-(2-hydroxypropan-2-yl)-1-oxido-3-oxo-2,3-dihydro-1l4-benzo[d]isothiazol-1-ylidene)urea] | 1 to 5 |
| CN1Cc2ccccc2S1(=O)=NC(=O)Nc1c2c(cc3c1CCC3)CCC2 (stereo not drawn) [Compound 107] | > 30 |
| Cc1c(C(F)(F)F)nc2c(c1NC(=O)N=S1(=O)NC(=O)c3ccc(C(C)(C)O)cc31)CCC2 (stereo not drawn) [Compound 108, 1-(6-(2-hydroxypropan-2-yl)-1-oxido-3-oxo-2,3-dihydro-1l4-benzo[d]isothiazol-1-ylidene)-3-(3-methyl-2-(trifluoromethyl)-6,7-dihydro-5H-cyclopenta[b]pyridin-4-yl)urea] | 1 to 5 |
| CC(C)c1cc(F)cc(C(C)C)c1CC(=O)N=S1(=O)NC(=O)c2ccc(C(C)(C)O)cc21 (stereo not drawn) [Compound 109] | > 30 |
| CN(C)Cc1ccc2c(c1)S(=O)(=NC(=O)Nc1c3c(cc4c1CCC4)CCC3)NC2=O (stereo not drawn) [Compound 110, 1-(6-((dimethylamino)methyl)-1-oxido-3-oxo-2,3-dihydro-1l4-benzo[d]isothiazol-1-ylidene)-3-(1,2,3,5,6,7-hexahydro-s-indacen-4-yl)urea] | 1 to 5 |
| CC(C)(O)c1ccc2c(c1)S(=O)(=NC(=O)Nc1c3c(cc4c1CC4)CCC3)NC2=O (stereo not drawn) [Compound 112, 1-(6-(2-hydroxypropan-2-yl)-1-oxido-3-oxo-2,3-dihydro-1l4-benzo[d]isothiazol-1-ylidene)-3-(2,4,5,6-tetrahydro-1H-cyclobuta[f]inden-3-yl)urea] | 0.2 to 1 |
| O=C1CCCS(=O)(=NC(=O)Nc2c3c(cc4c2CCC4)CCC3)N1 (stereo not drawn) [Compound 113, 1-(1,2,3,5,6,7-hexahydro-s-indacen-4-yl)-3-(1-oxido-3-oxo-1l6,2-thiazinan-1-ylidene)urea] | 1 to 5 |
| CC(C)(O)c1ccc2c(c1)S(=O)(=NC(=O)Cc1cc3c(c4c1CCC4)CCC3)NC2=O (stereo not drawn) [Compound 114, 2-(1,2,3,6,7,8-hexahydro-as-indacen-4-yl)-N-(6-(2-hydroxypropan-2-yl)-1-oxido-3-oxo-2,3-dihydro-1l4-benzo[d]isothiazol-1-ylidene)acetamide] | > 30 |

Further lines, results first:

| IC50 [µM] | Structure (SMILES) |
| --- | --- |
| 0.2 to 1 | Cc1c(C2CC2)nc2c(c1NC(=O)N=S1(=O)NC(=O)c3ccc(C(C)(C)O)cc31)CCC2 (single isomer, unassigned) [Compound 138, (S or R)-1-(2-cyclopropyl-3-methyl-6,7-dihydro-5H-cyclopenta[b]pyridin-4-yl)-3-(6-(2-hydroxypropan-2-yl)-1-oxido-3-oxo-2,3-dihydro-1l4-benzo[d]isothiazol-1-ylidene)urea] |
| > 30 | O=C(N=S1(=O)CC2(CN1)COC2)Nc1c2c(cc3c1CCC3)CCC2 (single isomer, unassigned) [Compound 139a, (S or R)-1-(1,2,3,5,6,7-hexahydro-s-indacen-4-yl)-3-(6-oxido-2-oxa-6l6-thia-7-azaspiro[3.4]octan-6-ylidene)urea] |
| 1 to 5 | CC(O)(CO)c1ccc2c(c1)S(=O)(=NC(=O)Nc1c3c(cc4c1CCC4)CCC3)NC2=O (single isomer, unassigned) [Compound 208a, 1-((1R or S)-6-(1,2-dihydroxypropan-2-yl)-1-oxido-3-oxo-2,3-dihydro-1l4-benzo[d]isothiazol-1-ylidene)-3-(1,2,3,5,6,7-hexahydro-s-indacen-4-yl)urea] |
| 0.04 to 0.2 | CC(O)(CO)c1ccc2c(c1)S(=O)(=NC(=O)Nc1c3c(cc4c1CCC4)CCC3)NC2=O (single isomer, unassigned) [Compound 208b, 1-((1S or R)-6-(1,2-dihydroxypropan-2-yl)-1-oxido-3-oxo-2,3-dihydro-1l4-benzo[d]isothiazol-1-ylidene)-3-(1,2,3,5,6,7-hexahydro-s-iadacen-4-yl)urea] |
| 5 to 30 | O=C(N=S1(=O)NC(=O)c2ccc(-n3cccn3)cc21)Nc1c2c(cc3c1CCC3)CCC2 (single isomer, unassigned) [Compound 211a, (S or R)-1-(1,2,3,5,6,7-hexahydro-s-indacen-4-yl)-3-(1-oxido-3-oxo-6-(1H-pyrazol-1-yl)-2,3-dihyclro-1l4-benzo[d]isothiazol-1-ylidene)urea] |
| > 30 | O=C(N=S1(=O)NC(=O)c2ccc(-n3cccn3)cc21)Nc1c2c(cc3c1CCC3)CCC2 (single isomer, unassigned) [Compound 211b, (R or S)-1-(1,2,3,5,6,7-hexahydro-s-indacen-4-yl)-3-(1-oxido-3-oxo-6-(1H-pyrazol-1-yl)-2,3-dihydro-1l4-benzo[d]isothiazol-1-ylidene)urea] |
| 1 to 5 | O=C(N=S1(=O)NC(=O)c2cccnc21)Nc1c2c(cc3c1CCC3)CCC2 (single isomer, unassigned) [Compound 223a, (S or S)-1-(1,2,3,5,6,7-hexahydro-s-indacen-4-yl)-3-(1-oxido-3-oxo-2,3-dihydro-1l4-isothiazolo[5,4-b]pyridin-1-ylidene)urea] |
| 5 to 30 | O=C(N=S1(=O)NC(=O)c2cccnc21)Nc1c2c(cc3c1CCC3)CCC2 (single isomer, unassigned) [Compound 223b, (R or S)-1-(1,2,3,5,6,7-hexahydro-s-indacen-4-yl)-3-(1-oxido-3-oxo-2,3-dihydro-1l4-isothiazolo[5,4-b]pyridin-1-ylidene)urea] |
| 0.2 to 1 | O=C(N=S1(=O)CC(Cc2ccccc2)C(=O)N1)Nc1c2c(cc3c1CCC3)CCC2 (single isomer, unassigned) [Compound 249a, 1-((1R,4S or 4R)-4-benzyl-1-oxido-3-oxo-1l6-isothiazolidin-1-ylidene)-3-(1,2,3,5,6,7-hexahydro-s-indacen-4-yl)urea] |
| > 30 | CC(C)(O)c1ccc2c(c1)S(=O)(=NC(=O)Cc1c3c(cc4c1CCC4)CCC3)NC2=O (stereo not drawn) [Compound 115, 2-(1,2,3,5,6,7-hexahydro-s-indacen-4-yl)-N-(6-(2-hydroxypropan-2-yl)-1-oxido-3-oxo-2,3-dihydro-1l4-benzo[d]isothiazol-1-ylidene)acetamide] |
| > 30 | CN1C(=O)c2ccccc2S1(=O)=NC(=O)Nc1c2c(cc3c1CCC3)CCC2 (stereo not drawn) [Compound 116] |
| 1 to 5 | CC(C)(O)c1ccc2c(c1)S(=O)(=NC(=O)Nc1c3c(nc4c1CCC4)CCC3)NC2=O (stereo not drawn) [Compound 117] |
| 1 to 5 | CC(C)(O)c1ccc2c(c1)S(=O)(=NC(=O)Nc1c3c(nc4c1CCC4(C)C)CCC3)NC2=O (stereo not drawn) [Compound 118, 1-(3,3-dimethyl-1,2,3,5,6,7-hexahydrodicyclopenta[b,e]pyridin-8-yl)-3-(6-(2-hydroxypropan-2-yl)-1-oxido-3-oxo-2,3-dihydro-1l4-benzo[d]isothiazol-1-ylidene)urea] |
| 5 to 30 | O=C(N=S1(=O)CCCN1)Nc1c2c(cc3c1CCC3)CCC2 (stereo not drawn) [Compound 119, 1-(1,2,3,5,6,7-hexahydro-s-indacen-4-yl)-3-(1-oxido-1l6-isothiazolidin-1-ylidene)urea] |
